For data set [1], the species on record is Homo sapiens. Nature of the data set: Inhibition of VEGFR (unknown origin) assessed as residual activity at 10 uM incubated for 5 mins in presence of [gamma-33ATP] by scintillation counting based radiometry assay relative to control.
The target in data set [2] is T1, Ephrin type-B receptor 2 (Homo sapiens) (UniProt P29323).
T1 sequence (whole entry): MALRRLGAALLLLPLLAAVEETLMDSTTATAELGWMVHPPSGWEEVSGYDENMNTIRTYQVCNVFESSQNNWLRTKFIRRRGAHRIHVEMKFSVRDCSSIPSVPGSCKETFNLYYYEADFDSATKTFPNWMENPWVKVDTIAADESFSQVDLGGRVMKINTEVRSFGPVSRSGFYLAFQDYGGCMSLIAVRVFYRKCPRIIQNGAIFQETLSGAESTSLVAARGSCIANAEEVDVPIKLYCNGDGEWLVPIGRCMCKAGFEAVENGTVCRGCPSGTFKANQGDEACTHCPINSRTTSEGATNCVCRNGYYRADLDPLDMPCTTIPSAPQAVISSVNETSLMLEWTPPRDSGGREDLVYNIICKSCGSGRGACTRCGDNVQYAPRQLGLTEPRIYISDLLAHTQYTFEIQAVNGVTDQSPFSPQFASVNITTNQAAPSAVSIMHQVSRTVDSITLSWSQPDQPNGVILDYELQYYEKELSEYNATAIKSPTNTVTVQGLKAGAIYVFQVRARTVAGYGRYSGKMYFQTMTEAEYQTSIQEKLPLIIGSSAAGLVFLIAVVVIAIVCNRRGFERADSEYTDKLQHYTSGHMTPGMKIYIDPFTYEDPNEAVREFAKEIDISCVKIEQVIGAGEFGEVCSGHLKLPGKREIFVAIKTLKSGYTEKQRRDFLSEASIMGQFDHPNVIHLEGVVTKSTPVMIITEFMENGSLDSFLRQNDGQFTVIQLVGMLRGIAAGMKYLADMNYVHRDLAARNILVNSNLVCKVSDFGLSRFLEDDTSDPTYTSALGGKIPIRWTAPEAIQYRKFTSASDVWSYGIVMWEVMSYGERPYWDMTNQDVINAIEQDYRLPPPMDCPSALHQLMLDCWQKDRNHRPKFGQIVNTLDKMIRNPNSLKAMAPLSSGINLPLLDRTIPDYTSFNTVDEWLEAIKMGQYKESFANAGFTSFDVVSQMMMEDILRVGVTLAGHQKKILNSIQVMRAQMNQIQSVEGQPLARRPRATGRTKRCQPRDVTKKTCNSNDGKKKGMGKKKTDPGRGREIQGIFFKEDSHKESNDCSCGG
Nature of the data set: Inhibition of EPHB2 (unknown origin) assessed as residual activity at 10 uM incubated for 5 mins in presence of [gamma-33ATP] by scintillation counting based radiometry assay relative to control.

The nature of data set [3]: Metabolic stability in human liver microsomes assessed as half life at 3 uM measured up to 30 mins in presence of NADPH by […] analysis. The class given is ADME, Microsome. On the technique in general: Liver microsomes are vesicles of endoplasmic reticulum, rich in cytochrome P450 enzymes.
The target in data set [4] is Serine/threonine-protein kinase Nek6 (Homo sapiens, UniProt Q9HC98). Nature of the data set: Inhibition of NEK6 (unknown origin) assessed as residual activity at 10 uM incubated for 5 mins in presence of [gamma-33ATP] by scintillation counting based radiometry assay relative to control.
Serine/threonine-protein kinase Nek6, sequence (Q9HC98 whole entry): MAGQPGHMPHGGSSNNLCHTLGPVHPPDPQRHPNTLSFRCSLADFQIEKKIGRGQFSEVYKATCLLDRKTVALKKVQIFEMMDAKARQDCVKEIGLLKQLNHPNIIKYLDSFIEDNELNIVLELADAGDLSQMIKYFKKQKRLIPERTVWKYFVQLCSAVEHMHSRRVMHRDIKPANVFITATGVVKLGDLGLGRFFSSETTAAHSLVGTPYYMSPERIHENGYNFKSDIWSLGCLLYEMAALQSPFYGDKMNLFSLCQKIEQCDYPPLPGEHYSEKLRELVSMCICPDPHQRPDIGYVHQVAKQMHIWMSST
Data set [5] addresses Proto-oncogene tyrosine-protein kinase Src (Homo sapiens, UniProt P12931). Nature of the data set: Inhibition of SRC (unknown origin) assessed as residual activity at 10 uM incubated for 5 mins in presence of [gamma-33ATP] by scintillation counting based radiometry assay relative to control.
Data set [6] deals with Platelet-derived growth factor receptor alpha (Homo sapiens, UniProt P16234). Nature of the data set: Inhibition of PDGFRalpha (unknown origin) assessed as residual activity at 10 uM incubated for 5 mins in presence of [gamma-33ATP] by scintillation counting based radiometry assay relative to control.
Platelet-derived growth factor receptor alpha, sequence (P16234 whole entry): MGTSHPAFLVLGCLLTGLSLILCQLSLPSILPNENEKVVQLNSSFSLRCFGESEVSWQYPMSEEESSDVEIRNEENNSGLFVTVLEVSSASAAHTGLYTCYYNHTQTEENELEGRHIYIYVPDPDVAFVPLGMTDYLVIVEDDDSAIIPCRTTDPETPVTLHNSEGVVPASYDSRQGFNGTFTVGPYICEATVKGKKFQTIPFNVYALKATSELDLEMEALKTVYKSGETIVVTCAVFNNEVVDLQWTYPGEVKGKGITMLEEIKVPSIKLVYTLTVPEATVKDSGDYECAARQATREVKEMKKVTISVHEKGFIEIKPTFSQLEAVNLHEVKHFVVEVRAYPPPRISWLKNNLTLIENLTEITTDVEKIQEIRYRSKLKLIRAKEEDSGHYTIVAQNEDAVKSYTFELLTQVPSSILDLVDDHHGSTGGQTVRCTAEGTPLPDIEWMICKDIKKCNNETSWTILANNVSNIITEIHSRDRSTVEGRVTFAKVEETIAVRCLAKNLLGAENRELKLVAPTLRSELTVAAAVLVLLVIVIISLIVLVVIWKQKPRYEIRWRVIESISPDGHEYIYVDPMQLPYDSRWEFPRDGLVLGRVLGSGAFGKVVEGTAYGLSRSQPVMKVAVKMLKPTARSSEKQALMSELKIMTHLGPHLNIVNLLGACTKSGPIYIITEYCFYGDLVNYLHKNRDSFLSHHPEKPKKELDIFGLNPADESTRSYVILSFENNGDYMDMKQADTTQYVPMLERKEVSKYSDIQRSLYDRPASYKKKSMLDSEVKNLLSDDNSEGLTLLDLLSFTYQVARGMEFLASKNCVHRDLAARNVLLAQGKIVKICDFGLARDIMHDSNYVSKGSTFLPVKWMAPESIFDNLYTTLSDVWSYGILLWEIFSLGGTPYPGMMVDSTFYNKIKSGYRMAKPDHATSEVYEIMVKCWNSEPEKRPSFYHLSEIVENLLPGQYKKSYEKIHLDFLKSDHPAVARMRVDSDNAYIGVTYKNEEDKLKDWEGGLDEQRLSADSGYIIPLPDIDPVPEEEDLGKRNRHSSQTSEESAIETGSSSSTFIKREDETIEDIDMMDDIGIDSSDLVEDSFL
The target of data set [7] is T2, Ephrin type-B receptor 3 (Homo sapiens) (UniProt P54753).
T2 sequence (whole entry): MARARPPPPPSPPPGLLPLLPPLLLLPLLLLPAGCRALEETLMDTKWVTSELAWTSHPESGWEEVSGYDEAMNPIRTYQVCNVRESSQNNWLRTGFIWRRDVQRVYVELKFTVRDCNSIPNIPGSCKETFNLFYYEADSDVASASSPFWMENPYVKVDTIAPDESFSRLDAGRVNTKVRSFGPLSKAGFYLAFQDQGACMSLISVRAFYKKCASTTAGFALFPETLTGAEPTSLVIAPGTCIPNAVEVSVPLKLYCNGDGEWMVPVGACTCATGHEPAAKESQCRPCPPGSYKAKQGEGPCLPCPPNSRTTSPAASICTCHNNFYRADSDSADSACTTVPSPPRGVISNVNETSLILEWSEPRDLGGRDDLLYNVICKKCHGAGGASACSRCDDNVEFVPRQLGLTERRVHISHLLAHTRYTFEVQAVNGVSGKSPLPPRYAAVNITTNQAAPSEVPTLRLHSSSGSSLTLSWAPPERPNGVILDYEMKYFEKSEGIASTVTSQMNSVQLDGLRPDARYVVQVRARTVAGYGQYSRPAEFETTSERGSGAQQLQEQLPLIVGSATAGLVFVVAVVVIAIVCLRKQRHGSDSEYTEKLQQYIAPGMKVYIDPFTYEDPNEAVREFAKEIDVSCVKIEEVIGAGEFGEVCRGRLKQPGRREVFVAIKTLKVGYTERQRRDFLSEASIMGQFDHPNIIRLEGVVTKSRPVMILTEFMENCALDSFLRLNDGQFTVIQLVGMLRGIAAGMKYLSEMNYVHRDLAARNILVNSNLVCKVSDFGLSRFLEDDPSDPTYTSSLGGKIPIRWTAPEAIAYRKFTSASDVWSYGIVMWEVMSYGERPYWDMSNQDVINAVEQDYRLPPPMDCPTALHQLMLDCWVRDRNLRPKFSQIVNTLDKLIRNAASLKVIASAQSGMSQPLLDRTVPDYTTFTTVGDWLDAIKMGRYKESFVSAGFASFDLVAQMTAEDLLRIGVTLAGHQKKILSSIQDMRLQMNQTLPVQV
Description: Inhibition of EPHB3 (unknown origin) assessed as residual activity at 10 uM incubated for 5 mins in presence of [gamma-33ATP] by scintillation counting based radiometry assay relative to control.

The target of data set [8] is Tyrosine-protein kinase Lck (Homo sapiens, UniProt P06239). Nature of the data set: Inhibition of LCK (unknown origin) assessed as residual activity at 10 uM incubated for 5 mins in presence of [gamma-33ATP] by scintillation counting based radiometry assay relative to control.
Tyrosine-protein kinase Lck, sequence (P06239 2-509 limits assumed): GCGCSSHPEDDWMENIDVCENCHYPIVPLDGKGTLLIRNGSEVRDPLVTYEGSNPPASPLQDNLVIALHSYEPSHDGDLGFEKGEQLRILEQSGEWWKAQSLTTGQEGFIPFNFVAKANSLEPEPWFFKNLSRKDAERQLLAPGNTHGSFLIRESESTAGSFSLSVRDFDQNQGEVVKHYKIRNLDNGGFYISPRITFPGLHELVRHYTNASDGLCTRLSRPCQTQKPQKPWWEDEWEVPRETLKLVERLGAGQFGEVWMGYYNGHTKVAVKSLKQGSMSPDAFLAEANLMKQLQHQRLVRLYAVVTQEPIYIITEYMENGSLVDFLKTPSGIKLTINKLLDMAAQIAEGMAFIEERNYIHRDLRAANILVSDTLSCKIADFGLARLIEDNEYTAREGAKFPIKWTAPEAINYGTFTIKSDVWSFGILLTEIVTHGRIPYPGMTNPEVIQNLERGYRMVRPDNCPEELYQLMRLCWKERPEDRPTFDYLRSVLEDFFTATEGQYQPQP
The nature of data set [9]: Metabolic stability in mouse liver microsomes assessed as half life at 3 uM measured up to 30 mins in presence of NADPH by […] analysis. Format: ADME, Microsome.

In general, half-life refers to how long it takes for the measured level to halve.

Proto-oncogene tyrosine-protein kinase Src, sequence (P12931 2-536 limits assumed): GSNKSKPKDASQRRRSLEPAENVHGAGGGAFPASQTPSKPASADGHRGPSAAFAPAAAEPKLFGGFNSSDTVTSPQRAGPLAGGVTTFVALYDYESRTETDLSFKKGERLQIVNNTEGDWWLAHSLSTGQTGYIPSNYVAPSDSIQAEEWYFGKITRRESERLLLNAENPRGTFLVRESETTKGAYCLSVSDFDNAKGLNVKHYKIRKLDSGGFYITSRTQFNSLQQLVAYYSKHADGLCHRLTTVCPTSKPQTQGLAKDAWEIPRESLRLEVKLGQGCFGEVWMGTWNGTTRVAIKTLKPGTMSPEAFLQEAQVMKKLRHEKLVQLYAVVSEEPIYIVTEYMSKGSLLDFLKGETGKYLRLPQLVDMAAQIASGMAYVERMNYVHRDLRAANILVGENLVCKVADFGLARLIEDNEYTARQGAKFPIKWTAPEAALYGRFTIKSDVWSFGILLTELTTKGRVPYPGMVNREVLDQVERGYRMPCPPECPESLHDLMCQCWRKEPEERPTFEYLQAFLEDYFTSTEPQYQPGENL

Turning to `Cc1ccc(C(=O)Nc2ccc(CN3Cc4cn[nH]c4C3)c(Cl)c2)cc1C#Cc1cnc2cccnn12`, the Activity in [1] amounted to 13%; in [2], 1%; in [4], 9%; in data set [5] it was 15%; in data set [6], 16%; in data set [7], 5%. In addition, the Activity in [8] is 17%. For the same compound, the half-life at 3 µM in data set [3] was determined as 39.8 min; in data set [9], 16.8 min.

Regarding `Cc1cn(-c2cc(NC(=O)c3ccc(C)c(Nc4nccc(-c5cccnc5)n4)c3)cc(C(F)(F)F)c2)cn1` [NILOTINIB], the Activity in [1] worked out at 75%; in [2] it was 25%; in [4], 97%; in data set [5], 74%; in data set [6], 56%; in data set [7] it was 52%. Further, the Activity in data set [8] worked out at 37%. In addition, the half-life at 3 µM in data set [3] and in data set [9] was 7.89 min throughout.

Values taken from ChEMBL document CHEMBL4602709 (ACS Med Chem Lett, 2020).
